What was measured:
[1] = target: T1, Human recombinant adenosine A1 receptors (Homo sapiens, UniProt P30542); assay: Human adenosine A1 receptor binding assay ([3H]DPCPX); settings: membranes of CHO-K1 cells, 1 nM [3H]DPCPX, 90 minutes at 25° C.; read-out: hAl Ki
T1 construct: expressed in transfected cells; host or cells: CHO-K1 cells (membrane preparation)
T1 sequence (P30542 1-326): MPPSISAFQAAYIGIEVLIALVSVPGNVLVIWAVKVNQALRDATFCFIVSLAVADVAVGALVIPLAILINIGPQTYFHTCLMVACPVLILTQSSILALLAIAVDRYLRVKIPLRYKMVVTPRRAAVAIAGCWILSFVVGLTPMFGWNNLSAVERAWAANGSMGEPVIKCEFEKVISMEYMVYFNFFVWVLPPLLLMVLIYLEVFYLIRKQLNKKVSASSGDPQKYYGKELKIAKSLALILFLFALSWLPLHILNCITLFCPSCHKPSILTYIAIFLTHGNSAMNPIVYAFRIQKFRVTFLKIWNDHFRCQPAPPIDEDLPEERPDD
Procedure: 2.1 Human Adenosine A1 Receptor Binding Assay
Test compound is weighed, dissolved in DMSO to make a stock solution of 10 mM, diluted with DMSO to prepare working solutions, then 100-fold diluted to the indicated concentrations. Human recombinant adenosine A1 receptors expressed in CHO-K1 cells were used to prepare membranes in incubation buffer (20 mM HEPES (4-(2-hydroxyethyl)-1-piperazineethanesulfonic acid) pH 7.4, 10 mM MgCl2, 100 mM NaCl). Test compound or vehicle (2.2 μL) was added in 200 μL of membranes and incubated with 20 μL of 1 nM [^3H] DPCPX (8-cyclopentyl-1,3-dipropylxanthine) for 90 minutes at 25° C. Non-specific binding was estimated in the presence of 100 μM R(−)-PIA ((R)—N-(1-methyl-2-phenylethyl)adenosine). The incubation was stopped by vacuum filtration onto 0.3% PEI (polyethylenimine) presoaked GF/B filters using a harvester followed by four washes with ice-cold 50 mM Tris-HCl, pH 7.4, and the radioactivity on GF/B filtermats counted in a scintillation counter (PerkinElmer Topcount™) to determine [^3H] DPCPX specifically bound. Final concentration of vehicle DMSO is 1%.
(§1) Data is fitted using the non-linear curve fitting routines in Meth-IQ software (ID Business Solutions Ltd., UK). IC50 is converted to Ki by Cheng-Prusoff equation: Ki=IC50/(1+[L]/KD) where [L] is concentration of radiolabeled ligand used in the assay.

[2] = target: T2, Human recombinant adenosine A2A receptors (Homo sapiens, UniProt P29274); assay: Human adenosine A2A receptor binding assay ([3H]CGS-21680); settings: for Ki: membranes of HEK-293 cells, 50 nM [3H]CGS-21680, 90 minutes at 25° C., read-out: hA2A Ki; for activity as dual antagonists of both A2A and A1 receptors: summary in words of the A2A and A1 binding results of Table 2
T2 construct: expressed in transfected cells; host or cells: HEK-293 cells (membrane preparation)
Procedure: 2.2 Human Adenosine A2A Receptor Binding Assay
Test compound is weighed, dissolved in DMSO to make a stock solution of 10 mM, diluted with DMSO to prepare working solutions, then 100-fold diluted to the indicated concentrations. Human recombinant adenosine A2A receptors expressed in HEK-293 cells were used to prepare membranes in incubation buffer (50 mM Tris-HCl, pH 7.4, 10 mM MgCl2, 1 mM EDTA, 2 U/ml Adenosine Deaminase). Test compound or vehicle (2.2 μL) was added in 200 μL of membranes and incubated with 20 μL of 50 nM [^3H] […] Non-specific binding was estimated in the presence of 50 μM NECA (5′-N-ethylcarboxamidoadenosine). The incubation was stopped by vacuum filtration onto 0.3% PEI (polyethylenimine) presoaked GF/B filters using a harvester followed by four washes with ice-cold 50 mM Tris-HCl, pH 7.4, and the radioactivity on GF/B filtermats counted in a scintillation counter (PerkinElmer TOPCOUNT™) to determine [^3H] […] Final concentration of vehicle DMSO is 1%.
as §1

T2 sequence (P29274 whole entry): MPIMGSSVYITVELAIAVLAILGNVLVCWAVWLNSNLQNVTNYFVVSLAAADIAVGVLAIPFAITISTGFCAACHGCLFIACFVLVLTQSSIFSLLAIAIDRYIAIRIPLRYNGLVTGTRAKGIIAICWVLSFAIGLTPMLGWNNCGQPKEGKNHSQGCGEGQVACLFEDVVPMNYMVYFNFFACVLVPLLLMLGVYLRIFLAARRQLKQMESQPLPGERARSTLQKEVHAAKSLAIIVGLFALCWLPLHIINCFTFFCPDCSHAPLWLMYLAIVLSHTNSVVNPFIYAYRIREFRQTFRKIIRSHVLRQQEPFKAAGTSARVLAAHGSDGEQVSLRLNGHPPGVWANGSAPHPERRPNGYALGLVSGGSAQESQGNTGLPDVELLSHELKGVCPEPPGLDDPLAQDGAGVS

SMILES	Ki [1] [nM]	Ki [2] [nM]	activity as dual antagonists of both A2A and A1 receptors [2]
N#Cc1cccc(-c2nc(N)nc3c2cnn3Cc2ccc(N)cc2F)c1F [Compound 203, 3-(6-amino-1-(4-amino-2-fluorobenzyl)-1H-pyrazolo[3,4-d]pyrimidine-4-yl)-2-fluorobenzonitrile]	≤ 100	< 20	potent activity as dual antagonists
Cc1cc(Cn2ncc3c(-c4cccc(C#N)c4)nc(N)nc32)ccc1N [Compound 204, 3-(6-amino-1-(4-amino-3-methylbenzyl)-1H-pyrazolo[3,4-d]pyrimidine-4-yl)benzonitrile]	100 to 1000	< 20	
Cc1cc(Cn2ncc3c(-c4cccc(C#N)c4F)nc(N)nc32)ccc1N [Compound 206, 3-(6-amino-1-(4-amino-3-methylbenzyl)-1H-pyrazolo[3,4-d]pyrimidine-4-yl)-2-fluorobenzonitrile]	≤ 100	< 20	potent activity as dual antagonists
N#Cc1cccc(-c2nc(N)nc3c2cnn3Cc2c(F)cc(N)cc2F)c1 [Compound 207, 3-(6-amino-1-(4-amino-2,6-difluorobenzyl)-1H-pyrazolo[3,4-d]pyrimidine-4-yl)benzonitrile]	≤ 100	< 20	potent activity as dual antagonists
N#Cc1cccc(-c2nc(N)nc3c2cnn3Cc2ccc(N)cc2F)c1 [Compound 209, 3-(6-amino-1-(4-amino-2-fluorobenzyl)-1H-pyrazolo[3,4-d]pyrimidine-4-yl)benzonitrile]	100 to 1000	< 20	
N#Cc1cccc(-c2nc(N)nc3c2cnn3Cc2ccc(N)c(C(F)(F)F)c2)c1F [Compound 211, 3-(6-amino-1-(4-amino-3-(trifluoromethyl)benzyl)-1H-pyrazolo[3,4-d]pyrimidine-4-yl)-2-fluorobenzonitrile]	≤ 100	< 20	potent activity as dual antagonists
N#Cc1cccc(-c2nc(N)nc3c2cnn3Cc2c(F)cccc2F)c1F [Compound 213, 3-(6-amino-1-(2,6-difluorobenzyl)-1H-pyrazolo[3,4-d]pyrimidine-4-yl)-2-fluorobenzonitrile]	≤ 100	< 20	potent activity as dual antagonists
N#Cc1cccc(-c2nc(N)nc3c2cnn3Cc2ccc(N)cc2)n1 [Compound 215, 6-(6-amino-1-(4-aminobenzyl)-1H-pyrazolo[3,4-d]pyrimidine-4-yl)picolinonitrile]	100 to 1000	20 to 200	
N#Cc1ccnc(-c2nc(N)nc3c2cnn3Cc2ccc(N)cc2)c1 [Compound 216, 2-(6-amino-1-(4-aminobenzyl)-1H-pyrazolo[3,4-d]pyrimidine-4-yl)isonicotinonitrile]	1000 to 10000	200 to 1000	
N#Cc1cncc(-c2nc(N)nc3c2cnn3Cc2ccc(N)cc2)c1 [Compound 217, 5-(6-amino-1-(4-aminobenzyl)-1H-pyrazolo[3,4-d]pyrimidine-4-yl)nicotinonitrile]	> 10000	1000 to 5000	
N#Cc1cc(-c2nc(N)nc3c2cnn3Cc2ccc(N)cc2)ccn1 [Compound 218, 4-(6-amino-1-(4-aminobenzyl)-1H-pyrazolo[3,4-d]pyrimidine-4-yl)picolinonitrile]	1000 to 10000	1000 to 5000	
N#Cc1cccc(-c2nc(N)nc3c2cnn3Cc2ccc(N)cc2F)n1 [Compound 219, 6-[6-amino-1-[(4-amino-2-fluoro-phenyl)methyl]pyrazolo[3,4-d]pyrimidine-4-yl]pyridine-2-carbonitrile]	100 to 1000	< 20	
N#Cc1ccnc(-c2nc(N)nc3c2cnn3Cc2ccc(N)cc2F)c1 [Compound 220, 2-(6-amino-1-(4-amino-2-fluorobenzyl)-1H-pyrazolo[3,4-d]pyrimidine-4-yl)isonicotinonitrile]	100 to 1000	20 to 200	
N#Cc1cncc(-c2nc(N)nc3c2cnn3Cc2ccc(N)cc2F)c1 [Compound 221, 5-[6-amino-1-[(4-amino-2-fluoro-phenyl)methyl]pyrazolo[3,4-d]pyrimidine-4-yl]pyridine-3-carbonitrile]	> 10000	1000 to 5000	
N#Cc1cc(-c2nc(N)nc3c2cnn3Cc2ccc(N)cc2F)ccn1 [Compound 222, 4-(6-amino-1-(4-amino-2-fluorobenzyl)-1H-pyrazolo[3,4-d]pyrimidine-4-yl)picolinonitrile]	> 10000	1000 to 5000	
N#Cc1cccc(-c2nc(N)nc3c2cnn3Cc2c(F)cc(N)cc2F)n1 [Compound 223, 6-[6-amino-1-[(4-amino-2,6-difluoro-phenyl)methyl]pyrazolo[3,4-d]pyrimidine-4-yl]pyridine-2-carbonitrile]	100 to 1000	< 20	
N#Cc1ccnc(-c2nc(N)nc3c2cnn3Cc2c(F)cc(N)cc2F)c1 [Compound 224, 2-[6-amino-1-[(4-amino-2,6-difluoro-phenyl)methyl]pyrazolo[3,4-d]pyrimidine-4-yl]pyridine-4-carbonitrile]	100 to 1000	20 to 200	
N#Cc1cncc(-c2nc(N)nc3c2cnn3Cc2c(F)cc(N)cc2F)c1 [Compound 225, 5-[6-amino-1-[(4-amino-2,6-difluoro-phenyl)methyl]pyrazolo[3,4-d]pyrimidine-4-yl]pyridine-3-carbonitrile]	1000 to 10000	1000 to 5000	
N#Cc1cc(-c2nc(N)nc3c2cnn3Cc2c(F)cc(N)cc2F)ccn1 [Compound 226, 4-(6-amino-1-(4-amino-2,6-difluorobenzyl)-1H-pyrazolo[3,4-d]pyrimidine-4-yl)picolinonitrile]	> 10000	1000 to 5000	
Cc1cc(Cn2ncc3c(-c4cccc(C#N)n4)nc(N)nc32)ccc1N [Compound 227, 6-(6-amino-1-(4-amino-3-methylbenzyl)-1H-pyrazolo[3,4-d]pyrimidine-4-yl)picolinonitrile]	100 to 1000	< 20	
Cc1cc(Cn2ncc3c(-c4cc(C#N)ccn4)nc(N)nc32)ccc1N [Compound 228, 2-(6-amino-1-(4-amino-3-methylbenzyl)-1H-pyrazolo[3,4-d]pyrimidine-4-yl)isonicotinonitrile]	100 to 1000	20 to 200	
Cc1cc(Cn2ncc3c(-c4cncc(C#N)c4)nc(N)nc32)ccc1N [Compound 229, 5-(6-amino-1-(4-amino-3-methylbenzyl)-1H-pyrazolo[3,4-d]pyrimidine-4-yl)nicotinonitrile]	> 10000	1000 to 5000	
Cc1cc(Cn2ncc3c(-c4ccnc(C#N)c4)nc(N)nc32)ccc1N [Compound 230, 4-(6-amino-1-(4-amino-3-methylbenzyl)-1H-pyrazolo[3,4-d]pyrimidine-4-yl)picolinonitrile]	> 10000	1000 to 5000	
N#Cc1cccc(-c2nc(N)nc3c2cnn3Cc2c(F)cccc2F)n1 [Compound 231, 6-(6-amino-1-(2,6-difluorobenzyl)-1H-pyrazolo[3,4-d]pyrimidine-4-yl)picolinonitrile]	100 to 1000	< 20	
N#Cc1ccnc(-c2nc(N)nc3c2cnn3Cc2c(F)cccc2F)c1 [Compound 232, 2-(6-amino-1-(2,6-difluorobenzyl)-1H-pyrazolo[3,4-d]pyrimidine-4-yl)isonicotinonitrile]	100 to 1000	20 to 200	
CCn1c(=O)c2c(nc(/C=C/c3ccc(OC)c(OC)c3)n2C)n(CC)c1=O [Istradefylline, reference compound]	100 to 1000		

— patent US11806350B2, “Prevention and/or treatment of CNS disorders” (ILDONG PHARMACEUTICAL CO., LTD., priority 2020, dated 2023)
